The results in this text go back to ChEMBL document CHEMBL1152299, “Indazole-based liver X receptor (LXR) modulators with maintained atherosclerotic lesion reduction activity but diminished stimulation of hepatic triglyceride synthesis” (J Med Chem, 2008).

Data set [1] deals with T1, Oxysterols receptor LXR-beta (Homo sapiens, UniProt P55055).
T1 sequence (P55055 whole entry): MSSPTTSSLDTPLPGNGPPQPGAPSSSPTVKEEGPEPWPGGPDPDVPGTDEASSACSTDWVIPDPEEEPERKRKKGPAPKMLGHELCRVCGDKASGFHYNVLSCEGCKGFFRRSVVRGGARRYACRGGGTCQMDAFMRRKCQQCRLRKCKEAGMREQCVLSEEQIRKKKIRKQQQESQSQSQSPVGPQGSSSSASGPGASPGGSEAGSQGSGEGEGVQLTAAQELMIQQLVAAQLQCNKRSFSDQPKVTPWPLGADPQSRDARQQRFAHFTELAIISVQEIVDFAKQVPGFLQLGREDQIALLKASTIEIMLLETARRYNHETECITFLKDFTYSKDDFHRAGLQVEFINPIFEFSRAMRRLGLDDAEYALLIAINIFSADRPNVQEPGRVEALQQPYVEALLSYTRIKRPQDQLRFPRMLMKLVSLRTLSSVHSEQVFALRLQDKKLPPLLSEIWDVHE
As to the kind of experiment: Agonist activity at human recombinant LXRbeta ligand binding domain in human HuH7 cells co-transfected with fused Gal4-DBD by transactivation assay. Format: cell-based, Huh-7.

Data set [2] concerns the target T2, Oxysterols receptor LXR-alpha (Homo sapiens, UniProt Q13133).
The target in data set [3] is T1, Oxysterols receptor LXR-beta.
Data set [4] deals with THP-1. In words: Stimulation of [3H]cholesterol efflux in human THP1 foam cells loaded with ac-LDL relative to TO901317. The format is functional.
In data set [5] the test system is THP-1. In words: Effect on ABCA1 gene expression in human differentiated THP1 cells relative to TO901317. Format: functional.
Data set [6] relates to HepG2. As to the kind of experiment: Effect on triglyceride accumulation in human HepG2 cells relative to TO901317. Format: functional.
Data set [7] concerns THP-1. In words: Stimulation of [3H]cholesterol efflux in human THP1 foam cells loaded with ac-LDL. Format: functional, cell-based.
Data set [8] relates to HepG2. In words: Effect on SREBP1c gene expression in human HepG2 cells relative to TO901317. Format: functional.
Data set [9] relates to HepG2. As to the kind of experiment: Effect on SREBP1c gene expression in human HepG2 cells. Format: functional, cell-based.
Data set [10] relates to Mus musculus. As to the kind of experiment: Increase in CYP7A1 gene expression in LDL receptor knockout C57BL/6 mouse liver at 10 mg/kg administered with Western diet. Format: functional.
Data set [11] has as its system HepG2. As to the kind of experiment: Effect on triglyceride accumulation in human HepG2 cells. The format is functional, cell-based.
For data set [12], the target named is T2, Oxysterols receptor LXR-alpha. This is another data set of the same source.
Data set [13] has as its system Mus musculus. In words: Reduction in atherosclerotic lesion size in LDL receptor knockout C57BL/6 mouse thoracic aorta at 10 mg/kg administered with Western diet after 8 weeks by oil Red-O staining. Format: functional. The arrangement: scale not given: the % may be the effect or the level left.
Data set [14] concerns Mus musculus. As to the kind of experiment: Upregulation of ABCA1 gene expression in LDL receptor knockout C57BL/6 mouse duodenum at 10 mg/kg administered with Western diet. The format is functional. To be noted: route oral.
Data set [15] deals with THP-1. As to the kind of experiment: Effect on ABCA1 gene expression in human differentiated THP1 cells. Format: functional, cell-based.
Data set [16] relates to Mus musculus. As to the kind of experiment: Decrease in total cholesterol level in LDL receptor knockout C57BL/6 mouse plasma at 10 mg/kg administered with Western diet after 8 weeks. Format: functional. The arrangement: scale not given: the % may be the effect or the level left.
Data set [17] concerns Syrian golden hamster. In words: Effect on triglyceride level in golden Syrian hamster plasma at 3 mg/kg administered with chow diet for 7 days measured after 2 hrs of final dose. The format is functional, Mesocricetus auratus.
In data set [18] the test system is Syrian golden hamster. As to the kind of experiment: Induction of FAS gene expression in golden Syrian hamster liver at 3 mg/kg administered with chow diet for 7 days measured after 2 hrs of final dose by real time PCR. The format is functional, Mesocricetus auratus.
Data set [19] can be described thus: Tmax in C57 mouse at 1 mg/kg, iv and 10 mg/kg, po. The format is ADME, organism-based. The following applies: in vivo.
Data set [20] is described as follows: Volume of distribution at steady state in C57 mouse at 1 mg/kg, iv and 10 mg/kg, po. Format: ADME, organism-based. The following applies: in vivo, read-out: Vdss.
Data set [21] can be described thus: Bioavailability in C57 mouse at 1 mg/kg, iv and 10 mg/kg, po. Format: ADME, organism-based. The following applies: in vivo.
Data set [22] is described as follows: AUC (0 to infinity) in C57 mouse at 1 mg/kg, iv and 10 mg/kg, po. The format is ADME, organism-based. The following applies: plasma.
A short description of data set [23]: Clearance in C57 mouse at 1 mg/kg, iv and 10 mg/kg, po. Format: ADME, organism-based. To be noted: in vivo.
The nature of data set [24]: Terminal half life in C57 mouse at 10 mg/kg, po. The format is ADME, organism-based. The arrangement: dose 10 mg/kg, route oral. The following applies: in vivo, read-out: beta t1/2 (converted).
Data set [25] can be described thus: Half life in C57 mouse at 1 mg/kg, iv. To be noted: in vivo. The format is ADME, organism-based. The arrangement: dose 1 mg/kg, route intravenous.
The nature of data set [26]: Cmax in male C57 mice after 10 mg/kg oral dose. Format: ADME, organism-based. The arrangement: dose 10 mg/kg, route oral. To be noted: C57, mouse, in vivo.

The term EC50 denotes the concentration needed to bring the measured effect to its halfway point. As a reminder, the IC50 is the concentration needed to halve the response being measured. With `O=C(O)Cc1ccc(CNc2cccc(-c3c(Cc4ccccc4)cnc4c(C(F)(F)F)cccc34)c2)cc1`, the EC50 in data set [1] was 90 nM. Moreover, the results for the 50% inhibitory concentration (IC50) in data set [2] and in data set [3] were 8 nM and 2 nM, respectively.
Turning to `O=S(=O)(c1ccccc1)N(CC(F)(F)F)c1ccc(C(O)(C(F)(F)F)C(F)(F)F)cc1` [T091317], the Efficacy in the data set with THP-1 [4], in the data set on THP-1 [5], in the data set on HepG2 [6] and in the data set with HepG2 [8] was 100% throughout. Besides, the figures for the 50% effective concentration (EC50) in the data set with THP-1 [7] and in the data set on HepG2 [9] were 3 nM and 61 nM, respectively.
Regarding `O=C(O)Cc1cccc(OCCCN(Cc2cccc(C(F)(F)F)c2Cl)CC(c2ccccc2)c2ccccc2)c1`, the “fold change (FC)” value with Mus musculus [10] was 1.9; in the data set on Mus musculus [14] it was 6.9. Further, the EC50 with HepG2 [11] amounted to 2000 nM; in data set [12], 660 nM; in data set [1], 310 nM; in the data set on THP-1 [7], 31 nM; with THP-1 [15] it was 434 nM; with HepG2 [9], 210 nM. Also, the values for the Activity in the data set with Mus musculus [13] and in the data set with Mus musculus [16] were 40% and 17%, respectively. The Efficacy in the data set on THP-1 [4] was determined as 84%; in the data set with THP-1 [5], 178%; in the data set with HepG2 [6] it was 45%; with HepG2 [8] it was 137%.
On to `O=C(O)Cc1ccc(COc2cccc(-c3c(Cc4ccccc4)cnc4c(C(F)(F)F)cccc34)c2)cc1`, for which the 50% effective concentration (EC50) was determined as 223 nM with HepG2 [11], 6 nM with THP-1 [7] and 120 nM with HepG2 [9]. In addition, the Activity in the data set on Mus musculus [13] is 38%; in the data set on Syrian golden hamster [17], 25%; with Mus musculus [16], 20%. Further, the Efficacy in the data set with THP-1 [4] is on record as 88%; in the data set on THP-1 [5], 155%; with HepG2 [6], 85%; in the data set on HepG2 [8] it was 96%. Besides, the “fold change (FC)” value in the data set with Syrian golden hamster [18] is 4.
A word on the Tmax: it is the time from dosing to the highest level. The term bioavailability denotes the share of a dose that reaches the circulation, judged against a reference dose that is usually intravenous. Broadly, the AUC(0-inf) is total exposure, with the tail of the curve extrapolated. Usually Cmax stands for the maximum level reached in the sampled fluid or tissue. For the compound `FC(F)(F)c1cccc2c(-c3ccccc3)n(Cc3ccccc3)nc12`, the Tmax in [19] came to 15 min. Moreover, the Vd in data set [20] worked out at 5.2 L/kg. Besides, in data set [21], the bioavailability came to 16%. In data set [22], this compound gave an AUC(0-inf) of 321 ng·h/mL. This compound showed a clearance in [23] of 81 mL/min/kg. For the same compound, the figures for the half-life in data set [24] and in data set [25] were 132 min and 114 min, respectively. In data set [26], this compound yielded a Cmax of 124 ng/mL.
